Experimental data as given in ChEMBL document CHEMBL3046407, “Toxicity of monoterpenes against larvae and adults of Colorado potato beetle, Leptinotarsa decemlineata Say (Coleoptera: Chrysomelidae)” (2007).

Legend:
Assay type in all cases: functional
[1] = system: Leptinotarsa decemlineata; assay: Insecticidal activity against first-instar larval stage of Leptinotarsa decemlineata infested potato leaves assessed as mortality at 10 ul after 24 hr relative to control
[2] = system: Leptinotarsa decemlineata; assay: Insecticidal activity against second-instar larval stage of Leptinotarsa decemlineata infested potato leaves assessed as mortality at 10 ul after 48 hr (reference value: 3.3 +/- 3.3%)
[3] = system: Leptinotarsa decemlineata; assay: Insecticidal activity against third-instar larval stage of Leptinotarsa decemlineata infested potato leaves assessed as mortality at 20 ul after 12 hr relative to control
[4] = system: Leptinotarsa decemlineata; assay: Insecticidal activity against second-instar larval stage of Leptinotarsa decemlineata infested potato leaves assessed as mortality at 10 ul after 24 hr (reference value: 3.3 +/- 3.3%)
[5] = system: Leptinotarsa decemlineata; assay: Insecticidal activity against second-instar larval stage of Leptinotarsa decemlineata infested potato leaves assessed as mortality at 20 ul after 24 hr (reference value: 3.3 +/- 3.3%)
[6] = system: Leptinotarsa decemlineata; assay: Insecticidal activity against first-instar larval stage of Leptinotarsa decemlineata infested potato leaves assessed as mortality at 20 ul after 96 hr relative to control
[7] = system: Leptinotarsa decemlineata; assay: Insecticidal activity against first-instar larval stage of Leptinotarsa decemlineata infested potato leaves assessed as mortality at 20 ul after 24 hr relative to control
[8] = system: Leptinotarsa decemlineata; assay: Insecticidal activity against first-instar larval stage of Leptinotarsa decemlineata infested potato leaves assessed as mortality at 10 ul after 12 hr relative to control
[9] = system: Leptinotarsa decemlineata; assay: Insecticidal activity against adult Leptinotarsa decemlineata infested potato leaves assessed as mortality at 10 ul after 96 hr relative to control
[10] = system: Leptinotarsa decemlineata; assay: Insecticidal activity against adult Leptinotarsa decemlineata infested potato leaves assessed as mortality at 10 ul after 24 hr relative to control
[11] = system: Leptinotarsa decemlineata; assay: Insecticidal activity against third-instar larval stage of Leptinotarsa decemlineata infested potato leaves assessed as mortality at 10 ul after 48 hr (reference value: 3.3 +/- 3.3%)
[12] = system: Leptinotarsa decemlineata; assay: Insecticidal activity against adult Leptinotarsa decemlineata infested potato leaves assessed as mortality at 20 ul after 24 hr relative to control
[13] = system: Leptinotarsa decemlineata; assay: Insecticidal activity against adult Leptinotarsa decemlineata infested potato leaves assessed as mortality at 10 ul after 48 hr relative to control
[14] = system: Leptinotarsa decemlineata; assay: Insecticidal activity against second-instar larval stage of Leptinotarsa decemlineata infested potato leaves assessed as mortality at 20 ul after 12 hr relative to control
[15] = system: Leptinotarsa decemlineata; assay: Insecticidal activity against second-instar larval stage of Leptinotarsa decemlineata infested potato leaves assessed as mortality at 10 ul after 12 hr relative to control
[16] = system: Leptinotarsa decemlineata; assay: Insecticidal activity against adult Leptinotarsa decemlineata infested potato leaves assessed as mortality at 20 ul after 48 hr relative to control
[17] = system: Leptinotarsa decemlineata; assay: Insecticidal activity against second-instar larval stage of Leptinotarsa decemlineata infested potato leaves assessed as mortality at 20 ul after 96 hr (reference value: 3.3 +/- 3.3%)
[18] = system: Leptinotarsa decemlineata; assay: Insecticidal activity against third-instar larval stage of Leptinotarsa decemlineata infested potato leaves assessed as mortality at 10 ul after 24 hr relative to control
[19] = system: Leptinotarsa decemlineata; assay: Insecticidal activity against second-instar larval stage of Leptinotarsa decemlineata infested potato leaves assessed as mortality at 10 ul after 96 hr (reference value: 3.3 +/- 3.3%)
[20] = system: Leptinotarsa decemlineata; assay: Insecticidal activity against third-instar larval stage of Leptinotarsa decemlineata infested potato leaves assessed as mortality at 10 ul after 96 hr (reference value: 3.3 +/- 3.3%)
[21] = system: Leptinotarsa decemlineata; assay: Insecticidal activity against first-instar larval stage of Leptinotarsa decemlineata infested potato leaves assessed as mortality at 10 ul after 48 hr relative to control
[22] = system: Leptinotarsa decemlineata; assay: Insecticidal activity against second-instar larval stage of Leptinotarsa decemlineata infested potato leaves assessed as mortality at 20 ul after 48 hr (reference value: 3.3 +/- 3.3%)
[23] = system: Leptinotarsa decemlineata; assay: Insecticidal activity against third-instar larval stage of Leptinotarsa decemlineata infested potato leaves assessed as mortality at 20 ul after 24 hr relative to control
[24] = system: Leptinotarsa decemlineata; assay: Insecticidal activity against adult Leptinotarsa decemlineata infested potato leaves assessed as mortality at 10 ul after 12 hr relative to control
[25] = system: Leptinotarsa decemlineata; assay: Insecticidal activity against first-instar larval stage of Leptinotarsa decemlineata infested potato leaves assessed as mortality at 20 ul after 48 hr relative to control
[26] = system: Leptinotarsa decemlineata; assay: Insecticidal activity against adult Leptinotarsa decemlineata infested potato leaves assessed as mortality at 20 ul after 12 hr relative to control
[27] = system: Leptinotarsa decemlineata; assay: Insecticidal activity against third-instar larval stage of Leptinotarsa decemlineata infested potato leaves assessed as mortality at 20 ul after 96 hr (reference value: 3.3 +/- 3.3%)
[28] = system: Leptinotarsa decemlineata; assay: Insecticidal activity against third-instar larval stage of Leptinotarsa decemlineata infested potato leaves assessed as mortality at 10 ul after 12 hr relative to control
[29] = system: Leptinotarsa decemlineata; assay: Insecticidal activity against first-instar larval stage of Leptinotarsa decemlineata infested potato leaves assessed as mortality at 20 ul after 12 hr relative to control
[30] = system: Leptinotarsa decemlineata; assay: Insecticidal activity against first-instar larval stage of Leptinotarsa decemlineata infested potato leaves assessed as mortality at 10 ul after 96 hr relative to control
[31] = system: Leptinotarsa decemlineata; assay: Insecticidal activity against third-instar larval stage of Leptinotarsa decemlineata infested potato leaves assessed as mortality at 20 ul after 48 hr (reference value: 3.3 +/- 3.3%)
[32] = system: Leptinotarsa decemlineata; assay: Insecticidal activity against adult Leptinotarsa decemlineata infested potato leaves assessed as mortality at 20 ul after 96 hr relative to control

| SMILES | mortality [1] | mortality [2] | mortality [3] | mortality [4] | mortality [5] | mortality [6] | mortality [7] | mortality [8] | mortality [9] | mortality [10] | mortality [11] | mortality [12] | mortality [13] | mortality [14] | mortality [15] | mortality [16] | mortality [17] | mortality [18] | mortality [19] | mortality [20] | further results |
| --- | --- | --- | --- | --- | --- | --- | --- | --- | --- | --- | --- | --- | --- | --- | --- | --- | --- | --- | --- | --- | --- |
| C=CC(C)CCC=C(C)C (stereo not drawn) [BETA-CITRONELLENE] | 86.7% | 100% | 50% | 96.7% | 100% | 100% | 100% | 30% | 76.7% | 73.3% | 100% | 76.7% | 73.3% | 66.7% | 43.3% | 83.3% | 100% | 93.3% | 100% | 100% | mortality [21]: 100%; mortality [22]: 100%; mortality [23]: 80%; mortality [24]: 40%; mortality [25]: 100%; mortality [26]: 53.3%; mortality [27]: 93.3%; mortality [28]: 80%; mortality [29]: 76.7%; mortality [30]: 100%; mortality [31]: 93.3%; mortality [32]: 90% |
| C=C1CCC2CC1C2(C)C (stereo not drawn) [BETA-PINENE] | 66.7% | 90% | 100% | 76.7% | 70% | 100% | 100% | 43.3% | 100% | 100% | 100% | 96.7% | 100% | 20% | 56.7% | 100% | 86.7% | 83.3% | 100% | 100% | mortality [21]: 96.7%; mortality [22]: 80%; mortality [23]: 100%; mortality [24]: 100%; mortality [25]: 100%; mortality [26]: 80%; mortality [27]: 100%; mortality [28]: 80%; mortality [29]: 66.7%; mortality [30]: 100%; mortality [31]: 100%; mortality [32]: 100% |
| CC(C)=CCCC(C)CCO (centres undefined) [CITRONELLOL] | 40% | 46.7% | 3.3% | 40% | 20% | 26.7% | 3.3% | 6.7% | 13.3% | 13.3% | 23.3% | 0% | 13.3% | 16.7% | 6.7% | 0% | 26.7% | 20% | 50% | 26.7% | mortality [21]: 46.7%; mortality [22]: 23.3%; mortality [23]: 3.3%; mortality [24]: 13.3%; mortality [25]: 16.7%; mortality [26]: 0%; mortality [27]: 16.7%; mortality [28]: 20%; mortality [29]: 0%; mortality [30]: 50%; mortality [31]: 6.7%; mortality [32]: 0% |
| C=CC(C)(O)CCC=C(C)C (centres undefined) [LINALOOL] | 53.3% | 76.7% | 6.7% | 73.3% | 93.3% | 100% | 93.3% | 26.7% | 90% | 73.3% | 20% | 73.3% | 83.3% | 36.7% | 20% | 100% | 100% | 13.3% | 100% | 23.3% | mortality [21]: 63.3%; mortality [22]: 100%; mortality [23]: 33.3%; mortality [24]: 16.7%; mortality [25]: 100%; mortality [26]: 30%; mortality [27]: 40%; mortality [28]: 3.3%; mortality [29]: 40%; mortality [30]: 100%; mortality [31]: 36.7%; mortality [32]: 100% |
| CC(C)=CCC/C(C)=C\CO [NEROL] | 16.7% | 36.7% | 16.7% | 16.7% | 16.7% | 56.7% | 16.7% | 13.3% | 23.3% | 16.7% | 73.3% | 6.7% | 20% | 10% | 13.3% | 10% | 53.3% | 56.7% | 56.7% | 80% | mortality [21]: 36.7%; mortality [22]: 46.7%; mortality [23]: 16.7%; mortality [24]: 13.3%; mortality [25]: 46.7%; mortality [26]: 6.7%; mortality [27]: 46.7%; mortality [28]: 26.7%; mortality [29]: 10%; mortality [30]: 56.7%; mortality [31]: 30%; mortality [32]: 13.3% |
| CC1=CCC(C(C)C)=CC1 [GAMMA-TERPINENE] | 100% | 100% | 10% | 100% | 100% | 100% | 100% | 43.3% | 90% | 40% | 30% | 96.7% | 66.7% | 100% | 90% | 100% | 100% | 26.7% | 100% | 33.3% | mortality [21]: 100%; mortality [22]: 100%; mortality [23]: 16.7%; mortality [24]: 20%; mortality [25]: 100%; mortality [26]: 46.7%; mortality [27]: 50%; mortality [28]: 16.7%; mortality [29]: 100%; mortality [30]: 100%; mortality [31]: 33.3%; mortality [32]: 100% |
| C=C(C)C1CC=C(C)C(=O)C1 (centres undefined) [CARVONE] | 43.3% | 63.3% | 23.3% | 53.3% | 83.3% | 56.7% | 30% | 16.7% | 93.3% | 26.7% | 13.3% | 36.7% | 66.7% | 53.3% | 33.3% | 100% | 90% | 13.3% | 63.3% | 16.7% | mortality [21]: 43.3%; mortality [22]: 86.7%; mortality [23]: 86.7%; mortality [24]: 0%; mortality [25]: 43.3%; mortality [26]: 3.3%; mortality [27]: 90%; mortality [28]: 6.7%; mortality [29]: 10%; mortality [30]: 63.3%; mortality [31]: 90%; mortality [32]: 100% |
